{"source": "paper PMC3914206", "type_in_all_cases": "binding", "conditions_in_all_cases": "Compound Concentration 10 µM", "key": {"panel of 442 kinases [1]": {"target": "T1, panel of 442 kinases (Homo sapiens, UniProt P50750)", "T1 construct": "purchased KINOMEscan", "T1 sequence (P50750 whole entry)": "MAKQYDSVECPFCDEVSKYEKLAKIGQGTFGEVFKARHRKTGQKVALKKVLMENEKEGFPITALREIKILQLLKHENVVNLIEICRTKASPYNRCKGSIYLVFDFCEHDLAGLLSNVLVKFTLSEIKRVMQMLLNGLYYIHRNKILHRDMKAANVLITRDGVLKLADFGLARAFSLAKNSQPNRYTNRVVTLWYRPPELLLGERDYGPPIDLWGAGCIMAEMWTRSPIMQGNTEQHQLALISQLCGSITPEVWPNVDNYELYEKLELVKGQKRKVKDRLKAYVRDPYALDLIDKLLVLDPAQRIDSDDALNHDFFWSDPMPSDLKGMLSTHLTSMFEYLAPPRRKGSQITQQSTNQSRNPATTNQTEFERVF", "source_text": "(§1) We assessed the selectivity of members of this scaffold using the KINOMEscan methodology across a near comprehensive panel of 442 kinases [[18,27]]."}, "panel of 442 kinases [2]": {"target": "T2, panel of 442 kinases (Homo sapiens, UniProt Q05655)", "T2 construct": "purchased KINOMEscan", "T2 sequence (Q05655 whole entry)": "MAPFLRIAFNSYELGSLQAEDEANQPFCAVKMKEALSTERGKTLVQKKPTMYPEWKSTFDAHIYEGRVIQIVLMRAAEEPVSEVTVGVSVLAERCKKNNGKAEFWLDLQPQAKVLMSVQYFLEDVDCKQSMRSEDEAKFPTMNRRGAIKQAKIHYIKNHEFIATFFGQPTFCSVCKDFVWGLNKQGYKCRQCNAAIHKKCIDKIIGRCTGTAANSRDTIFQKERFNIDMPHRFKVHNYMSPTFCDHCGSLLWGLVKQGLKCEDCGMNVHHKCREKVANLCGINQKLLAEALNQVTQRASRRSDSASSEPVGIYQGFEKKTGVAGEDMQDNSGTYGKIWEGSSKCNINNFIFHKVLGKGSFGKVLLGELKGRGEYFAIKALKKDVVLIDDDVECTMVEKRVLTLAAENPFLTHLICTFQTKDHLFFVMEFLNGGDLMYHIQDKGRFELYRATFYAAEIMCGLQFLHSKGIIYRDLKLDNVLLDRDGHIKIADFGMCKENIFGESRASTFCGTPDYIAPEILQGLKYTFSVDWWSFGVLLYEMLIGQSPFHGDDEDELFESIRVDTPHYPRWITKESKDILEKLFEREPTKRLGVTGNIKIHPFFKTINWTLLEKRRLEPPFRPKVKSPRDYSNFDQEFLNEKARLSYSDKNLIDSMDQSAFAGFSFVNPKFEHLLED", "source_text": "as §1"}, "panel of 442 kinases [3]": {"target": "T3, panel of 442 kinases (Homo sapiens, UniProt P78356)", "T3 construct": "purchased KINOMEscan", "T3 sequence (P78356 1-416)": "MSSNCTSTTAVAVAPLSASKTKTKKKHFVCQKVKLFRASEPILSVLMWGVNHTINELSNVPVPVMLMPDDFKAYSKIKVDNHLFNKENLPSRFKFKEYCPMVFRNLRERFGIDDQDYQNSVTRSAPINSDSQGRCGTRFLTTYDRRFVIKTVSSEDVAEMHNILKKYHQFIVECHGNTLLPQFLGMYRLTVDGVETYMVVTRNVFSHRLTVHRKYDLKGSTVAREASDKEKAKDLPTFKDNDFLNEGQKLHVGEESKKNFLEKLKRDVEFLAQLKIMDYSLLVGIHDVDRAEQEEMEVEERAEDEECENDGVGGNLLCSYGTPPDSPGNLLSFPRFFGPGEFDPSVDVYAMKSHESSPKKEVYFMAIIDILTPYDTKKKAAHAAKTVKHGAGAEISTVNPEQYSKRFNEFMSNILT", "source_text": "as §1"}}, "data": [{"smiles": "COc1cc(C(=O)N2CCC(N3CCN(C)CC3)CC2)ccc1Nc1ncc2c(n1)N(C1CCCC1)c1ccccc1C(=O)N2C", "note": "[Compound 25, 11-cyclopentyl-2-((2-methoxy-4-(4-(4-methylpiperazin-1-yl)piperidine-1-carbonyl)phenyl)amino)-5-methyl-5H-benzo[e]pyrimido[5,4-b][1,4]diazepin-6(11H)-one]", "values": [{"measurement": "KINOMEscan: CDK9", "setting": "panel of 442 kinases [1]", "result": 98}, {"measurement": "KINOMEscan: PRKCD", "setting": "panel of 442 kinases [2]", "result": 100}, {"measurement": "KINOMEscan: PIP5K2B", "setting": "panel of 442 kinases [3]", "result": 100}]}, {"smiles": "CCOc1cc(C(=O)N2CCC(N3CCN(C)CC3)CC2)ccc1Nc1ncc2c(n1)N(C1CCCC1)c1ccccc1C(=O)N2C", "note": "[Compound 26]", "values": [{"measurement": "KINOMEscan: CDK9", "setting": "panel of 442 kinases [1]", "result": 100}, {"measurement": "KINOMEscan: PRKCD", "setting": "panel of 442 kinases [2]", "result": 100}, {"measurement": "KINOMEscan: PIP5K2B", "setting": "panel of 442 kinases [3]", "result": 100}]}, {"smiles": "COc1cc(C(=O)N2CCC(N3CCN(C)CC3)CC2)ccc1Nc1ncc2c(n1)N1CCc3cccc(c31)C(=O)N2C", "note": "[Compound 24]", "values": [{"measurement": "KINOMEscan: CDK9", "setting": "panel of 442 kinases [1]", "result": 96}, {"measurement": "KINOMEscan: PRKCD", "setting": "panel of 442 kinases [2]", "result": 67}]}, {"smiles": "COc1cc(C(=O)N2CCC(N3CCN(C)CC3)CC2)ccc1Nc1ncc2c(n1)N(C)c1ccccc1C(=O)N2C", "note": "[15 (LRRK2-IN-1)]", "values": [{"measurement": "KINOMEscan: CDK9", "setting": "panel of 442 kinases [1]", "result": 100}, {"measurement": "KINOMEscan: PRKCD", "setting": "panel of 442 kinases [2]", "result": 75}, {"measurement": "KINOMEscan: PIP5K2B", "setting": "panel of 442 kinases [3]", "result": 100}]}]}
